Test results taken from patent US20180369118A1, “METHODS FOR SPORE REMOVAL” (3M INNOVATIVE PROPERTIES COMPANY, priority 2015, published 2018).

Test system: C.sporogenes spores ATCC 3584
Assay: In-vitro removal of spores from Vitro-Skin (finger bag collection method)
Conditions: Example 4
Excerpt: The in-vitro method was designed to evaluate the removal of microbes from skin using a synthetic skin material from the cosmetic industry, Vitro-skin from IMS inc, Portland MeThis method enables rapid screening of formulations for their propensity to promote release of microbes from skin and may be predictive of in-vivo activity.
The following materials were utilized. C.sporogenes spores ATCC 3584˜1.0×10̂8 CFU/ml; Triton-X 100 sampling buffer (pH 7.4) Filter Sterilized: 0.4 g KH2PO4, 10.1 g Na2HPO4, 1 g Triton-X 100, and 1 L dH2O; D/E neutralizing broth; Fingers from disposable polyethylene gloves (VWR 32915-268); Sterile dH2O (WFI quality water); 3M AC Petrifilm; and 5 ml Falcon tubes; 1.5 ml EPI Centrifuge tubes; Petri Dishes; Vitro-Skin IMS Inc.; and double-sided tape.
The method included the following. Punched-out specified number of Vitro-Skin samples using the ¾″ punch. Attached punch-out Vitro-Skin samples to a Petri-dish or any other sterile flat surface using double-sided tape. Contaminated the Vitro-Skin samples accordingly with 10μl of spores/spore prep (˜1×10̂6 CFU/Sample). Used the pipette tip to spread spores over the surface and used a new pipette tip for each sample. Allowed the samples to dry (˜40 minutes). […]
For best statistical data each test solution was repeated 3 times. […] Counted plates and analyzed data.

N=C(NCCCCCCNC(=N)NC(=N)Nc1ccc(Cl)cc1)NC(=N)Nc1ccc(Cl)cc1.O=C(O)[C@H](O)[C@@H](O)[C@H](O)[C@H](O)CO.O=C(O)[C@H](O)[C@@H](O)[C@H](O)[C@H](O)CO [CHG, Chlorhexidine gluconate]
spore removal (in words): poor spore removal
